Reference: the NIST ThermoML archive (doi:10.1016/j.jct.2012.10.004)

Conditions: Liquid, Vibrating tube method

CCCC[N+]1(C)CCCC1.O=S(=O)([N-]S(=O)(=O)C(F)(F)F)C(F)(F)F
mass density [kg/m3]
Conditions	100 kPa	1000 kPa	10000 kPa	20000 kPa	40000 kPa	60000 kPa	80000 kPa	100000 kPa	120000 kPa
278.15 K	1415.1	1415.7	1421.5	1428	1439.8	1450.6	1460.8	1470.2	1479.1
298.15 K	1395.2	1395.8	1401.8	1408.4	1420.7	1432.2	1442.8	1452.9	1462.9
313.15 K	1381.6	1382.3	1388.8	1395.8	1408.7	1420.7	1431.6	1441.8	1451.8
333.15 K	1364	1364.7	1371.6	1379	1392.6	1405.2	1416.6	1427.4	1437.6
348.15 K	1351.1	1351.8	1359.1	1366.9	1381.1	1394	1405.9	1416.9	1427.5
373.15 K	1330.5	1330.8	1338.6	1347	1362.2	1375.9	1388.3	1399.9	1410.9
398.15 K	1307.8	1308.7	1316.4	1325.3	1341.7	1356.3	1369.7	1382	1393.5
